This is an account of results in patent publication US12648986B2, “PLD for use in combination in the treatment of coronavirus” (PHARMA MAR, S.A., priority 2020, dated 2026).

For data set [1], the system named is SARS-CoV-2. The data set can be described thus: Cytopathic effect on Vero E6 cells exposed to SARS-CoV-2 (CellTiter-Glo). The format is cell-based. The note with it: for IC50: read-out: mean IC50 value and SD, SARS-CoV-2-induced cytopathic effect. On the technique in general: Protection from cytopathic effect is a common read-out in antiviral testing.
Data set [2] relates to SARS-CoV-2. The data set is described as follows: Vero E6 cells infected with SARS-CoV-2, direct quantitation of nucleocapsid (N) protein. In kind it is cell-based. The following applies: Severe acute respiratory syndrome coronavirus 2, Vero C1008, two studies, read-out: IC50, SARS-CoV-2 growth in vitro.
For a further data set, the system named is CD45+ cells. The data set can be described thus: Ex vivo cytokine expression in CD45+ cells from broncho-alveolar lavages of mice, LPS-B5 stimulation. The note with it: cells from plitidepsin treated mice. An excerpt:
An ex vivo study assessed the effect of plitidepsin on expression of the cytokines IL 6, IL 10, and TNFα in the lungs of mice.

The subject of data set [3] is human stem cell-derived pneumocyte like cells. The note with it: 10 nm plitidepsin, 48 hour incubation.
The target of another data set is eEF1A (Oryctolagus cuniculus, UniProt Q71V39). The data set is described as follows: Binding of 14C-plitidepsin to purified eEF1A. The following applies: eEF1A purified from rabbit muscle.
eEF1A, sequence (Q71V39 whole entry): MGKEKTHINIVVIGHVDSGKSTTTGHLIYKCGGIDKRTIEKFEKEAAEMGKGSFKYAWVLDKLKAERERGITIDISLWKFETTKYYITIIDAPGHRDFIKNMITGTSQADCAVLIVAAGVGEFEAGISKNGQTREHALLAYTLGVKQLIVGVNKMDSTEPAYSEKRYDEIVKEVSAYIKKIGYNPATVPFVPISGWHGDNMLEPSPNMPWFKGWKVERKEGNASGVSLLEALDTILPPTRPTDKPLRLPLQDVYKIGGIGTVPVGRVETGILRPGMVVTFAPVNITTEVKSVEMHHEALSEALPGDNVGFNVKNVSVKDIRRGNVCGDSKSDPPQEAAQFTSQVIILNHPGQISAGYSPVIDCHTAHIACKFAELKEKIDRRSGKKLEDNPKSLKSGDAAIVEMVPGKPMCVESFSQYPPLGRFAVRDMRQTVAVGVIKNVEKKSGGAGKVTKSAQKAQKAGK
Data set [4] has as its system SARS-CoV-2. The data set is described as follows: SARS-CoV-2 replication in human stem cell-derived pneumocyte like cells. In kind it is cell-based. The note with it: 10 nM plitidepsin for 1 hour before infection, 48 hour incubation. The procedure:
Several in vitro experiments aimed at determining the effect of plitidepsin on SARS-CoV-2 were carried out and are disclosed herein. […] In another study, human stem cell-derived pneumocyte like cells were prophylactically exposed to 10 nm plitidepsin for 1 hour and then infected with SARS-CoV-2 (4×10^4 plaque forming units). After a 48 hour incubation period, both antiviral and cytotoxic plitidepsin effects were determined.

The test system of data set [5] is SARS-CoV-2. The data set is described as follows: Mouse model of adenovirus-mediated hACE2 infected with SARS-CoV-2. In kind it is in vivo.
Data set [6] deals with SARS-CoV-2. The data set is described as follows: K18-hACE2 transgenic mice infected with SARS-CoV-2. The format is in vivo.
Setting [7] is: Severe acute respiratory syndrome coronavirus 2, Vero C1008, 72 h.

Where two headings read alike, the source gives them in different places.

Usually IC50 stands for the concentration at which inhibition is half-maximal.

In the case of `CCN(CCO)CCCC(C)Nc1ccnc2cc(Cl)ccc12` (stereo not shown) [Hydroxychloroquine, hydroxychloroquine], the IC50 with SARS-CoV-2 [1] (setting [7]) came to 9300 ± 11100 nM. For the same compound, in the data set with Vero E6 cells (Vero E6, absence of virus), the “cytotoxic effects of the drug at concentrations inhibiting viral-induced cytopathic effect” value is given as “no cytotoxic effects of the drug were observed”.
Turning to `CC[C@H](C)[C@H]1NC(=O)[C@@H](NC(=O)[C@@H](CC(C)C)N(C)C(=O)[C@@H]2CCCN2C(=O)C(C)=O)[C@@H](C)OC(=O)[C@H](Cc2ccc(OC)cc2)N(C)C(=O)[C@@H]2CCCN2C(=O)[C@H](CC(C)C)NC(=O)[C@@H](C)C(=O)[C@H](C(C)C)OC(=O)C[C@@H]1O` [PLD, (−)-(3S,6R,7S,10R,11S,15S,17S,20S,25aS)-11-hydroxy-3-(4-methoxybenzyl)-2,6,17-trimethyl-15-(1-methylethyl)-7-[[(2R)-4-methyl-2-[methyl[[(2S)-1-(2-oxopropanoyl)pyrrolidin-2-yl]carbonyl]amino]pentanoyl]amino]-10-[(1S)-1-methylpropyl]-20-(2-methylpropyl)tetradecahydro-15H-pyrrolo[2,1-f]-[1,15,4,7,10,20]dioxatetrazacyclotricosine-1,4,8,13,16,18,21(17H)-heptaone], the IC50 in the data set with SARS-CoV-2 [2] was 0.7 to 3 nM; with SARS-CoV-2 [1] (setting [7]), 51 ± 20 nM. In the data set with CD45+ cells, the “IL 6, IL 10 and TNFα in CD45+ cells upon LPS-B5 stimulation vs nonstimulated controls” value is “failed to show a marked increase”. In addition, the “cytotoxic effects of the drug at concentrations inhibiting viral-induced cytopathic effect” value in the data set with Vero E6 cells (Vero E6, absence of virus) is reported as “no cytotoxic effects of the drug were observed”. Further, in data set [3], the “cytotoxicity against pneumocyte like cells” value is “no observable cytotoxicity”. In addition, the “affinity for eEF1A” value at eEF1A is on record as “high affinity”. For the same compound, the “rate of dissociation from eEF1A” value at eEF1A is “low rate of dissociation”. Also, in the data set with SARS-CoV-2 [4], the “replication of SARS-CoV-2” value is “completely eliminated replication of SARS-CoV-2”. The “antiviral effects in vivo” value with SARS-CoV-2 [5] and in the data set with SARS-CoV-2 [6] was “potent antiviral effects” throughout.
Consider MDL28170 [MDL 28170], for which the IC50 in the data set on SARS-CoV-2 [1] (Vero E6, single drug, 3 days post infection, independent experiments with two replicates each) was determined as 140 ± 60 nM. Also, the “cytotoxic effects of the drug at concentrations inhibiting viral-induced cytopathic effect” value with Vero E6 cells (Vero E6, absence of virus) is reported as “no cytotoxicity of the drug was observed”.
In the case of nelfinavir mesylate hydrate, the “capacity to inhibit SARS-CoV-2-induced cytopathic effect” value with SARS-CoV-2 [1] (Vero E6, 100 μM to 0.0512 nM) is “confirmed to have in vitro capacity to inhibit SARS-CoV-2-induced cytopathic effect”. In the data set with Vero E6 cells, the “cytotoxic effects of the drug at concentrations inhibiting viral-induced cytopathic effect” value is “no cytotoxicity of the drug was observed”.
